Columns and labels:
Adenosine receptor A3 = target: T1, Adenosine receptor A3 (Homo sapiens, UniProt P0DMS8); assay: biochemical
T1 sequence (P0DMS8 whole entry): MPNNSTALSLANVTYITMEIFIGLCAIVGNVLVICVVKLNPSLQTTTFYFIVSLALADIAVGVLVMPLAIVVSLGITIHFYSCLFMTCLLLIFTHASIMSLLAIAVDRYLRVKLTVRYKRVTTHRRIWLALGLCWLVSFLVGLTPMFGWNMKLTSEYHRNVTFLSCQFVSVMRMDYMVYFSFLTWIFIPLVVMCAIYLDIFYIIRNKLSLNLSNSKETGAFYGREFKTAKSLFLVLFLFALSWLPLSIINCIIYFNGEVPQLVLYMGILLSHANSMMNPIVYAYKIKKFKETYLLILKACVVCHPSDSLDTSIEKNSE

Adenosine receptor A2a [1] = target: T2, Adenosine receptor A2a (Homo sapiens, UniProt P29274); assay: biochemical
T2 sequence (P29274 whole entry): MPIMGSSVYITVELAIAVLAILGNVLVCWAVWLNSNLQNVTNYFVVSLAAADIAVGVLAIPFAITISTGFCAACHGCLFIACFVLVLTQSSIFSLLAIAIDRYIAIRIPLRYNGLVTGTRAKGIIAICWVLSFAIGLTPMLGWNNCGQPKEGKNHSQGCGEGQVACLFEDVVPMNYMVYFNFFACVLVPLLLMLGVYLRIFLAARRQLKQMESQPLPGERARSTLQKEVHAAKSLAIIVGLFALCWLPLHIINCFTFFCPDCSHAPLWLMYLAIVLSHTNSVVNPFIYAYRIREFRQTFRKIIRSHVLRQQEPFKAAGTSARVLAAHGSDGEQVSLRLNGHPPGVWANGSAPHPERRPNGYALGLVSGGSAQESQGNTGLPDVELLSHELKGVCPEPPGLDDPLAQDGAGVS

Adenosine receptor A1 [2] = target: T3, Adenosine receptor A1 (Homo sapiens, UniProt P30542); assay: biochemical
T3 sequence (P30542 whole entry): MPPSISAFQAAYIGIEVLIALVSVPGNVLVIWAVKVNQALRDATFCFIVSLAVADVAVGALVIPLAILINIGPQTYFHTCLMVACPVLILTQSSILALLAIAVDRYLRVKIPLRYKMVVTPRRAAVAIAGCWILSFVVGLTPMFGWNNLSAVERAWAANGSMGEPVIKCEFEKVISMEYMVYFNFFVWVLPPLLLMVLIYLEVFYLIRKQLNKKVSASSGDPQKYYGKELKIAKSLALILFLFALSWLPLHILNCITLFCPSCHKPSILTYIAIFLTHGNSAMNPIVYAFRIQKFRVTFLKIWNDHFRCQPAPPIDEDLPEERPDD

[3] = target: T4, Adenosine receptor A1 (Homo sapiens) (UniProt P30542); assay: Displacement of [3H]R-PIA from human adenosine A1 receptor expressed in CHO cells at 1 uM; assay type: cell-based
T4 sequence (whole entry): T3 sequence (P30542 whole entry)

Adenosine receptor A2a [4] = target: T2, Adenosine receptor A2a; assay: Displacement of [3H]CGS21680 from human adenosine A2A receptor expressed in CHO cells at 1 uM; assay type: cell-based
Adenosine receptor A1 [5] = target: T3, Adenosine receptor A1
Adenosine receptor A2a [6] = target: T2, Adenosine receptor A2a

Compound | Ki (Adenosine receptor A3) | Ki (Adenosine receptor A2a [1]) | Ki (Adenosine receptor A1 [2]) | inhibition [3] | inhibition (Adenosine receptor A2a [4]) | Ki (Adenosine receptor A1 [5]) | Ki (Adenosine receptor A2a [6])
CNc1ncnc2c1ncn2[C@@H]1S[C@H](C(=O)NC2CCC2)[C@@H](O)[C@H]1O | 1.04 nM | 108 nM | 6.27 nM |  |  |  | 
O=C(NC(c1ccccc1)c1ccccc1)[C@H]1S[C@@H](n2cnc3c(NCc4cccc(I)c4)ncnc32)[C@H](O)[C@@H]1O | 116 nM |  |  | 17% |  |  | 
O=C(NCC1CC1)[C@H]1S[C@@H](n2cnc3c(NCc4cccc(I)c4)ncnc32)[C@H](O)[C@@H]1O | 2.16 nM | 1600 nM | 159 nM |  |  |  | 
Cc1ccccc1CNC(=O)[C@H]1S[C@@H](n2cnc3c(NCc4cccc(I)c4)ncnc32)[C@H](O)[C@@H]1O | 31 nM |  |  | 18% | 31% |  | 
Cc1cccc(CNC(=O)[C@H]2S[C@@H](n3cnc4c(NCc5cccc(I)c5)ncnc43)[C@H](O)[C@@H]2O)c1 | 94.9 nM |  | 4070 nM |  | 37% |  | 
O=C(NC1CC1)[C@H]1S[C@@H](n2cnc3c(NCc4cccc(I)c4)ncnc32)[C@H](O)[C@@H]1O | 3.03 nM | 15.2 nM |  |  |  |  | 
CNC(=O)[C@H]1S[C@@H](n2cnc3c(NCc4cccc(I)c4)ncnc32)[C@H](O)[C@@H]1O |  |  |  |  |  | 20.2 nM | 475 nM
CCOc1ccccc1CNC(=O)[C@H]1S[C@@H](n2cnc3c(NCc4cccc(I)c4)ncnc32)[C@H](O)[C@@H]1O | 113 nM |  |  | 12% | 20% |  | 
O=C(NCc1cccc2ccccc12)[C@H]1S[C@@H](n2cnc3c(NCc4cccc(I)c4)ncnc32)[C@H](O)[C@@H]1O | 1200 nM |  |  | 20% | 11% |  | 
O=C(NC1CCCCC1)[C@H]1S[C@@H](n2cnc3c(NCc4cccc(I)c4)ncnc32)[C@H](O)[C@@H]1O | 35.4 nM |  |  | 28% | 35% |  | 
CNc1ncnc2c1ncn2[C@@H]1S[C@H](C(=O)NC2CCCC2)[C@@H](O)[C@H]1O | 0.97 nM |  | 48.6 nM |  | 27% |  | 
O=C(NC1CCC1)[C@H]1S[C@@H](n2cnc3c(NCc4cccc(I)c4)ncnc32)[C@H](O)[C@@H]1O | 1.17 nM | 122 nM | 23.6 nM |  |  |  | 
CNc1ncnc2c1ncn2[C@@H]1S[C@H](C(=O)NCc2cccc(I)c2)[C@@H](O)[C@H]1O | 15.6 nM |  |  | 24% | 24% |  | 
CNc1ncnc2c1ncn2[C@@H]1S[C@H](C(=O)NCC2CC2)[C@@H](O)[C@H]1O | 1.35 nM |  | 33.1 nM |  | 45% |  | 
O=C(NCCc1ccccc1)[C@H]1S[C@@H](n2cnc3c(NCc4cccc(I)c4)ncnc32)[C@H](O)[C@@H]1O | 433 nM |  |  | 20% | 38% |  | 
CCNC(=O)[C@H]1S[C@@H](n2cnc3c(NC)ncnc32)[C@H](O)[C@@H]1O | 0.97 nM |  | 4.83 nM |  | 38% |  | 
COc1ccccc1CNC(=O)[C@H]1S[C@@H](n2cnc3c(NCc4cccc(I)c4)ncnc32)[C@H](O)[C@@H]1O | 97 nM |  |  | 34% | 23% |  | 
O=C(NCc1cccc(Cl)c1)[C@H]1S[C@@H](n2cnc3c(NCc4cccc(I)c4)ncnc32)[C@H](O)[C@@H]1O | 144 nM |  |  | 25% | 26% |  | 
CNC(=O)[C@H]1S[C@@H](n2cnc3c(NC)ncnc32)[C@H](O)[C@@H]1O | 1.19 nM |  | 69.5 nM |  | 20% |  | 
CCNC(=O)[C@H]1S[C@@H](n2cnc3c(NCc4cccc(I)c4)ncnc32)[C@H](O)[C@@H]1O | 0.42 nM | 57.6 nM | 5.4 nM |  |  |  | 
Cc1ccc(CNC(=O)[C@H]2S[C@@H](n3cnc4c(NCc5cccc(I)c5)ncnc43)[C@H](O)[C@@H]2O)cc1 | 135 nM |  |  | 15% | 28% |  | 
O=C(NCc1cccc(F)c1)[C@H]1S[C@@H](n2cnc3c(NCc4cccc(I)c4)ncnc32)[C@H](O)[C@@H]1O | 61.1 nM |  |  | 25% | 44% |  | 
CNc1ncnc2c1ncn2[C@@H]1S[C@H](C(=O)NC2CC2)[C@@H](O)[C@H]1O | 2.16 nM | 161 nM | 6.58 nM |  |  |  | 

— ChEMBL document CHEMBL1153082, “Design and synthesis of N(6)-substituted-4'-thioadenosine-5'-uronamides as potent and selective human A(3) adenosine receptor agonists” (Bioorg Med Chem, 2009)
